Test results as given in EP0010667A1, “Cepham compounds, pharmaceutical compositions containing them and processes for the preparation thereof and of known cephem compounds” (FUJISAWA PHARMACEUTICAL CO., LTD., priority 1978, dated 1980).
≈ marks a conversion by molar mass, not a printed value.

Legend:
Klebsiella pneumoniae 20 = experiment: In vitro antibacterial activity, two-fold agar-plate dilution method; assay type: cell-based; details: heart infusion agar (HI-agar), incubated at 37°C for 20 hours
Procedure: (§1) In vitro antibacterial activity was determined by the two-fold agar-plate dilution'method as described below. One loopful of an overnight culture of each test strain in Trypticase soy broth was streaked on heart infusion agar (HI-agar) containing graded concentration of the test compound and incubated at 37°C for 20 hours. The minimal inhibitory concentration (MIC) was expressed in µg/m1.

Proteus mirabilis 18 = experiment: as above; assay type: cell-based; details: heart infusion agar (HI-agar), incubated at 37°C for 20 hours
Procedure: as §1

Structure (SMILES): CO/N=C(\C(=O)NC1C(=O)N2C(C(=O)O)C(=COC(C)=O)CSC12)c1csc(N)n1 (stereo not drawn) [Test compound, 7-[2-(2-Aminothiazol-4-yl)-2-methoxyimino-acetamido]-3-acetoxymethylenecepham-4-carboxylic acid (syn isomer)]
- MIC (Klebsiella pneumoniae 20): 6.25 µg/mL (≈ 13.7 µM)
- MIC (Proteus mirabilis 18): 6.25 µg/mL (≈ 13.7 µM)
